Data published in patent US10456550B2, “Device and method for controlling respiration during sleep” (Yeda Research and Development Co. Ltd., priority 2010, dated 2019).

Assays:
healthy subjects [1] = assay: Respiration (inhale/exhale volume) after odorant presentation during sleep; assay type: in vivo, human; settings: for inhale/exhale volume ratio following odor presentation in comparison to baseline: nasal respiration, across all sleep stages; for difference in respiration volume ratio across sleep stages: repeated measures ANOVA between sleep stages
Text: (§1) Odorants were delivered with a computer-controlled air dilution olfactometer built according to principals described in Sobel et al. 1997; Johnson and Sobel 2007 which are incorporated herein by reference. Room air (3 Liter per minute) was mixed with the odorized air (3 liter per minute), resulting in odor concentration of 50%. The odorant line culminated at a small nasal mask that was subserved by a vacuum line pulling at the same rate of airflow. This provided an odor environment at the nose where odorant onset and offset occurred within 2 and 260 ms, respectively, with no visual, auditory, tactile, humidity, or thermal cues as to the alteration. In other words, the odorant stimulus was not a puff of air but rather a block of odorant embedded within an airflow that was constant for the duration of the study. The olfactometer itself was located in a room adjacent to the sleep room, and only the airflow tubing crossed into the sleep room via a wave guide within the stainless steel-coated wall. This provided additional separation from any possible visual or auditory stimulation associated with the olfactometer (e.g., LEDs on its front panel, etc.).
Overall respiration was computed as a reflection of changes in thoracic respiration and abdominal respiration circumference measured using 2 piezoelectric respiratory belt transducers (1132 Pneumotrace II, UFI).
Nasal and Oral respiration was measured using separate pneumotachometers (high-sensitivity flowmeter model #4719, Hans Rudolph, Inc.) that were attached in line with the vent ports of the mask. The pneumotachometer differential pressure was measured and converted to a voltage signal using a spirometer (ML141, ADInstruments) that delivered the voltage to the instrumentation amplifier.
The effects of odorants on 4 breath parameters were tested: breath mean airflow velocity, breath maximum airflow velocity, breath volume, and breath duration. Breath volume was calculated by the trapezoidal Reimann sum method (Johnson et al. 2006). Breaths were aligned in time by setting the point at which the breath passed from the expiratory phase to the inspiratory phase as time 0.
The experimenters observed the real-time polysomnography reading, and 20 min after they determined that the subject had entered stage 2 sleep, they initiated the experimental protocol that from this point on was computer controlled. Every 9, 12, or 15 min (randomized), the olfactometer generated a 5-, 10-, or 20-s (randomized) odor stimulus. […] Upon spontaneous morning wake-up, subjects again rated the intensity and pleasantness of the odorant and were then debriefed, paid, and released.
Averages of respiration measurements for inhalation, exhalation, and inhalation/exhalation ratio in the 30 breaths before odor onset were compared with the averages of respiration measurements for inhalation, exhalation, and inhalation/exhalation ratio for each one of 6 breaths after odor onset across sleep stages per odorant and for all odorants together. This analysis was corrected for the 6 comparisons using a Bonferroni correction. Respiratory measurements were compared between sleep stages per odorant in a repeated measures ANOVA.
The second alternative is that, although oral respiration typically reflects only; 4% of overall respiration in sleep (Fitzpatrick et al. 2003), the odorant may have changed the balance between nasal and oral breathing such that oral inspiration increased. Under this scenario, the increase in nasal exhalation reflected an increase in oral inspiration rather than the exhalation of air stored in the lungs. The above data could not discriminate between these alternatives because it relied on accurate measurement of nasal respiration alone. An additional control group of 10 subjects were studied using the odorant vetiver oil that in addition to the nasal mask were fitted with an oral mask in order to accurately measure oral and nasal respiration simultaneously.

healthy subjects [2] = assay: Arousal and wake-up frequency after odorant presentation during sleep (polysomnography); assay type: in vivo, human; settings: odor vs clean-air baseline, across sleep stages; 5-20 s stimuli, 50% odor concentration
Text: as §1
Physiological measurements were recorded using a Power-Lab 16SP Monitoring System (ADInstruments) running off a Macintosh G4 computer using a sampling rate of 1000 Hz and a 50-Hz notch filter to remove electrical artifacts. For all measures dependent on electrodes, the scalp surface was cleaned with mild abrasive gel (Nuprep gel, Aurora) in order to assist in lowering impedance at the electrode site. For pasted to electrodes on the rest of the body, the skin surface was also first cleaned with alcohol. The following measures were recorded:
Electroencephalogram (EEG) was obtained through 2 circular electrodes ([…]) that were located at positions C3 and C4 according to the 10-20 system and were referenced to electrodes on the opposite mastoids (A2 and A1, respectively). Signals were amplified using a preamplifier (Octal Bio Amp ML138, ADInstruments).
Electromyogram (EMG) was obtained through 2 circular Ag/AgCl conductive adhesive electrodes (0.9 cm diameter). The electrodes were located bilaterally adjacent to the submentalis muscles. Signals were amplified using a preamplifier (Octal Bio Amp ML138, ADInstruments). […]
Blood oxygination (SpO2) was measured with an oxymeter (MLT321 SpO2 Finger Clip Sensor, ADInstruments) embedded within a finger clip placed on the left index finger.
Sleep stages were scored off-line according to the R and K criteria (Rechtschaffen and Kales 1968). […]
The experimenters observed the real-time polysomnography reading, and 20 min after they determined that the subject had entered stage 2 sleep, they initiated the experimental protocol that from this point on was computer controlled. […]

humans = settings: selective trigeminal irritant during nocturnal sleep; cited from earlier work
8-day-old rats = settings: cited from earlier work
[3] = first breath after dispersion, worded 'may' in the description

Compound	inhale/exhale volume ratio following odor presentation in comparison to baseline (healthy subjects [1])	difference in respiration volume ratio across sleep stages (healthy subjects [1])	effect of odor on arousal frequency (healthy subjects [2])	effect of odor on wake-up frequency (healthy subjects [2])	other results
COc1cc(C=O)ccc1O [vanillin]	significantly smaller	no difference	no effect of odor on arousal	no effect of odor on wake-up	decrease of inhalation volume (healthy subjects [1]; [3]): about 23%; increase of exhalation volume (healthy subjects [1]; [3]): about 6%; reduction of nasal inhalation/exhalation volume ratio (healthy subjects [1]; first breath after odor onset, worded 'may' in the description): about 27%; reduction of nasal inhalation/exhalation volume ratio (healthy subjects [1]; sixth breath after odor onset, worded 'may' in the description): about 5%
[NH4+].[NH4+].[S-2] [ammonium sulfide]	significantly smaller	no difference	no effect of odor	no effect of odor on wake-up	
O=C=O [CO2]					arousal frequency (humans): concentration-dependent increase in arousal frequency
CSSC [DMDS, dimethyl disulfide]					sniffing during sleep (8-day-old rats; 8-day-old rats presented with odorant): sniffing, including polypnea, occurred while the rats were asleep; arousal responses (8-day-old rats; sleeping 8-day-old rats): did not evoke reliable arousal responses
